# According to PubChem BioAssay AID1912 (The Scripps Research Institute Molecular Screening Center, 2009):
# The source made the active and inactive calls. How the calls were made is not given here.
# Molecular target: Luciferin 4-monooxygenase (Photinus pyralis) (UniProt P08659)
# Experiment: firefly luciferase inhibitor potency, HSP90 counter-screen, dose response, artefact control for HSP90 inhibitor project, biochemical, luminescence (AID 1912)
# Settings: purified firefly luciferase, luminescence inhibition
# Luciferin 4-monooxygenase (Photinus pyralis), sequence (P08659 whole entry, looked up): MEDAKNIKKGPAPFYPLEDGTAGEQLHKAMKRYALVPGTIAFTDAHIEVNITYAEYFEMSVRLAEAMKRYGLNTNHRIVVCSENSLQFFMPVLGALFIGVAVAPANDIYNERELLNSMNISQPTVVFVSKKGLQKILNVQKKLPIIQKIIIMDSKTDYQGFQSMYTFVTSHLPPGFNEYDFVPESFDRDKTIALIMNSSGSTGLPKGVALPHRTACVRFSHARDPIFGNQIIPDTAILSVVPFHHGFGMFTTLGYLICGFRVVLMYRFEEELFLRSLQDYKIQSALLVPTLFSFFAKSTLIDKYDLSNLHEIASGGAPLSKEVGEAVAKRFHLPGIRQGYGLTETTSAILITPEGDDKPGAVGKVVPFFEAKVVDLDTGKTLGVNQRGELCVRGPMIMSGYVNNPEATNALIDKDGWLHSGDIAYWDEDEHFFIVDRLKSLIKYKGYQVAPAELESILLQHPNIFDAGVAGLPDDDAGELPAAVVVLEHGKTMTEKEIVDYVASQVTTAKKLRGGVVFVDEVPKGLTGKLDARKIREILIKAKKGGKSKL
row,SMILES,IC50
1,O=C1C(Nc2ccc(O)cc2)=C/C(=N/S(=O)(=O)c2cccs2)c2ccccc21,inactive
2,COCC(C)n1c(C)cc(C(=O)Cn2nc(C(=O)O)c3ccccc3c2=O)c1C (stereo not given),> 60 µM (inactive)
3,CCc1ccc(S(=O)(=O)/N=C2\C=C(Nc3cccc(C(=O)O)c3)C(=O)c3ccccc32)cc1,> 60 µM (inactive)
4,Cc1ccc(S(=O)(=O)/N=C2\C=C(Nc3cccc(C(=O)O)c3)C(=O)c3ccccc32)cc1,> 60 µM (inactive)
5,CC(=O)Oc1ccccc1/C=C/c1nc2ccccc2c(=O)o1,> 60 µM (inactive)
6,O=C1C(Nc2ccccc2)=C/C(=N/S(=O)(=O)c2cccs2)c2ccccc21,inactive
7,CC(=O)c1ccc(N=Nc2c(C)[nH]n(-c3ccccc3)c2=O)cc1,> 60 µM (inactive)
8,CNC(=S)N/N=C/c1ccc(-c2ccc(C(=O)O)cc2)o1,> 60 µM (inactive)
9,COC(=O)c1ccccc1NC1=C/C(=N\S(=O)(=O)c2ccc(C(=O)O)cc2)c2ccccc2C1=O,> 60 µM (inactive)
10,Cc1cc(NO)nc(-c2ccc(Br)cc2)n1,> 60 µM (inactive)
11,COc1ccccc1Nc1nn2c(=O)c3ccc(C(=O)NCc4cccnc4)cc3nc2s1,> 60 µM (inactive)
12,CCCc1ccc(OCc2ccc(C(=O)N3CCSCC3)o2)cc1,inactive
13,O=[N+]([O-])/C=C/c1ccc2c(ccn2Cc2ccccc2)c1,> 60 µM (inactive)
14,COC(=O)C1CCN(C(=O)c2ccc3nc(-c4cccc(OC)c4)oc3c2)CC1,> 60 µM (inactive)
15,Cc1cc(C(=O)Cn2nc(C(=O)O)c3ccccc3c2=O)c(C)n1CC(F)(F)F,> 60 µM (inactive)
16,C=CCn1c(NS(=O)(=O)c2ccccc2)c(S(=O)(=O)c2ccc(C)cc2)c2nc3ccccc3nc21,> 60 µM (inactive)
17,CCOc1ccc(-c2nc(CN(Cc3ccccc3)C[C@@H]3CCC(=O)N3)c(C)o2)cc1,> 60 µM (inactive)

# The remaining lines, values ahead:
row,IC50,SMILES
1,> 60 µM (inactive),CCC(=O)Nc1ccccc1C(=O)OCC(=O)c1ccccc1
2,inactive,O=C(CSc1ncccc1C(=O)O)c1ccc2ccccc2c1
3,> 60 µM (inactive),COc1ccccc1NC(=O)c1coc(=O)c(Br)c1
4,> 60 µM (inactive),CC(=O)Nc1ccc(OS(=O)(=O)c2ccc([N+](=O)[O-])cc2)cc1
5,> 60 µM (inactive),O=C(O)c1cc(N/N=C/c2cccnc2)ccc1Cl
6,> 60 µM (inactive),CCc1ccc(S(=O)(=O)/N=C2\C=C(Nc3ccc(C(=O)O)cc3)C(=O)c3ccccc32)cc1
7,> 60 µM (inactive),Cc1nc2ccc(C(=O)O)cc2[nH]1
8,inactive,COc1cc(/C=C/[N+](=O)[O-])ccc1OCc1cccc(C(=O)O)c1
